From US9551722B2, “Amyloid binding agents” (The Regents of the University of California, priority 2009, dated 2017)

How the values were obtained:
[1] = target: T1, pre-aggregated Aβ(1-42) peptide (Homo sapiens, UniProt P05067); experiment: Apparent binding constant (Kd) by double reciprocal fluorescence plot; conditions: compound 10, 5, 2.5, 1.25 μM; 5.0 μM pre-aggregated Aβ(1-42); PBS pH 7.4
T1 construct: preaggregated Aβ(1-42) peptides
Description: We also measured the apparent binding constants (Kd) of the compounds (in concentrations of 10, 5, 2.5 and 1.25 μM) to 5.0 μM pre-aggregated Aβ(1-42) peptide. The Kd can be measured from the double reciprocal of the fluorescent maximum and the concentration of the compound. See H. LeVine III, Protein Sci. 1993, 2:404-410. […] [22,] See LeVine, Id.; Lockhart, L. Ye, D. B. Judd, A. T. Merritt, P. N. Lowe, J. L. Morgenstern, G. Z. Hong, A. D. Gee, J. Brown, J. Biol. Chem. 2005, 280:7677-7684; M. Biancalana, K. Makabe, A. Koide, S. Koide, J. Mol. Biol. 2008, 383:205-213; M. Biancalana, K. Makabe, A. Koide, S. Koide, J. Mol. Biol. 2009, 385:1052-1063. The Kd corresponds to the −1/(x-intercept) of the linear regression.
Pre-aggregated Aβ(1-42) (5 μM final concentration) was mixed with various concentrations of compounds described herein (10, 5, 2.5, 1.25 μM) in PBS buffer (pH 7.4) and their fluorescence was measured. The negative inverse of the x-intercept of the linear regression, that was drawn between the double reciprocal of the fluorescence intensity maximum and concentration of the compound, represents the compound binding constant (Kd) to Aβ(1-42).
In order to quantify the dissociation constants (Kd's) for the binding of fluorescent compounds with aggregated β-amyloid peptides, we used the method described by LeVine (see H. LeVine III, Protein Sci. 1993, 2, 404-410). This method is similar to the method described by Benesi-Hildebran (see C. Yang, L. Liu, T. W. Mu, Q. X. Guo, Anal. Sci. 2000, 16, 537-539). Here, the fluorescence of the compound was measured with and without the addition of the aggregated peptides in solution. The relative fluorescence enhancement of the compound upon binding to aggregated β-amyloid peptides was determined by taking the difference between F (fluorescence after the addition of aggregated peptides) and F (fluorescence before the addition of aggregated peptides).
In order to estimate the binding constant (Kd) for the compound-Aβ complexes from the fluorescence studies, we made the following assumptions: • 1. All compounds are completely in solution and free of any significant competing binding process such as self-aggregation. • 2. The concentration of unbound compounds can be approximated as close to the total concentration of the compounds. • 3. The binding sites in the aggregated Aβ peptides are not completely occupied at the concentration of Aβ-binding compounds used for the fluorescence studies (i.e., the experiments are carried out under non-saturated binding conditions).
FIG. 2 and FIG. 6 provide double reciprocal plots of the measured fluorescence versus total concentration of compound [GO]. Assuming that [G] can be approximated as close to [GO] (assumption 2), we can obtain estimates for the Kd's of the compound-Aβ complexes from the x-intercept of the linear fits of the data for each compound.

[2] = target: T2, aggregated Aβ(1-42) peptides (Homo sapiens, UniProt P05067); experiment: Fluorescence spectra before and after mixing with preaggregated Aβ(1-42) (Cmpds 8a-8d, 11, 14, 19); type: binding; conditions: for Emission max before binding / Excitation max before binding: 4 μM compound in PBS, without Aβ; for Emission max before binding / Excitation max before binding / Emission max after binding / Excitation max after binding: 25° C.; for Fold increase (fluorescence intensity after binding) / Emission max after binding / Excitation max after binding: 4 μM compound, 5 μM aggregated Aβ(1-42); for Emission max after binding / Excitation max after binding: PBS
T2 construct: preaggregated Aβ(1-42) peptides
Description: An initial study to determine whether a compound can associate with aggregated Aβ is to compare its fluorescence spectra before and after mixing with the Aβ aggregates. See E. E. Nesterov, J. Skoch, B. T. Hyman, W. E. Klunk, B. J. Bacskai, T. M. Swager, Angew. Chem. Int. Edit. 2005, 44:5452-5456; Z. P. Zhuang, M. P. Kung, H. F. Kung, J. Med. Chem. 2006, 49:2841-2844; Q. A. Li, J. S. Lee, C. Ha, C. B. Park, G. Yang, W. B. Gan, Y. T. Chang, Angew. Chem. Int. Edit. 2004, 43:6331-6335; H. F. Kung, C. W. Lee, Z. P. Zhuang, M. P. Kung, C. Hou, K. Plossl, J. Am. Chem. Soc. 2001, 123:12740-12741. […] See H. LeVine III, Protein Sci. 1993, 2:404-410. Along these lines we measured the fluorescent properties of each compound at 4 μM concentration before and after mixing with preaggregated Aβ(1-42) peptides (5 μM, aggregated in PBS buffer for 3 days at 25° C.).
Aggregated Aβ peptide was prepared by dissolving Aβ(1-42) in PBS pH 7.4 to a final concentration of 100 μM. This solution was magnetically stirred at 1200 rpm for 3 days at room temperature. The 100 μM Aβ(1-42) stock solution in PBS was aliquoted and frozen at […] for up to 4 weeks without noticeable change in its property. 150 μL of pre-aggregated Aβ(1-42) was added to 2.85 mL of compound to attain a final concentration of 5 μM Aβ(1-42) and 4 μM of compound. The solution was transferred to 3 mL cuvette and the fluorescence measured at 25° C. […] The fluorescence excitation spectra of Cmpds 8a, 8b, 8c, 14 and 19 are depicted in FIG. 4, respectively.

T1 sequence (P05067 672-713 limits assumed): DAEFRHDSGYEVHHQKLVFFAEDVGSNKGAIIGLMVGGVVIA
T2 sequence (P05067 672-713 limits assumed): as above

Row | Structure (SMILES) | Kd [1] [µM] | Emission max before binding [2] [nm] | Excitation max before binding [2] [nm] | Fold increase (fluorescence intensity after binding) [2] [fold] | Emission max after binding [2] [nm] | Excitation max after binding [2] [nm] | Red shift of emission upon binding ([2]; binding to preaggregated Aβ) [nm]
1 | CCN(CC)c1ccc(C=C(C#N)C(=O)OCCOCCOCCOC)cc1 (stereo in doubt) [Cmpd 8c, (Z)-2-(2-(2-methoxyethoxyl)ethoxy)ethyl 2-cyano-3-(4-(diethylamino)phenyl)acrylate] | 4.8 | 478 | 445 | 4.2 | 470 | 442 | –
2 | CN(C)c1ccc(/C=C(\C#N)C(=O)OCC(O)CO)cc1 (stereo not shown) [Cmpd 14, (E)-2,3-dihydroxypropyl 2-cyano-3-(4-(dimethylamino)phenyl) acrylate] | 3.3 | 476 | 437 | 2.2 | 467 | 434 | –
3 | CCCCN(CCCC)c1ccc(C=C(C#N)C(=O)OCCOCCOCCOC)cc1 (stereo in doubt) [Cmpd 8d, (Z)-2-(2-(2-methoxyethoxyl)ethoxy)ethyl-2-cyano-3-(4-(dibutylamino)phenyl)acrylate] | 4.4 | 466 | 432 | 9.4 | 468 | 440 | –
4 | COCCOCCOCCOC(=O)/C(C#N)=C/c1ccc(N(C)C)cc1OC [Cmpd 8b, (E)-2-(2-(2-methoxyethoxyl)ethoxy)ethyl 2-cyano-3-(4-(dimethylamino)-2-methoxyphenyl)acrylate] | 5.3 | 478 | 442 | 1.3 | 469 | 444 | –

Now those with a lower Kd [1], led by results:

Row | Kd [1] [µM] | Emission max before binding [2] [nm] | Excitation max before binding [2] [nm] | Fold increase (fluorescence intensity after binding) [2] [fold] | Emission max after binding [2] [nm] | Excitation max after binding [2] [nm] | Red shift of emission upon binding ([2]; binding to preaggregated Aβ) [nm] | Structure (SMILES)
5 | 2.5 | 462 | 445 | 9.3 | 538 | 440 | 76 | COCCOCCOCCOC(=O)/C(C#N)=C/c1ccc2cc(N3CCCCC3)ccc2c1 [Cmpd 11, (E)-2-(2-(2-methoxyethoxyl)ethoxy)ethyl-2-cyano-3-(6-(piperidin-1-yl)naphthalen-2-yl)acrylate]
6 | 2.6 | 476 | 439 | 1.8 | 470 | 435 | – | COCCOCCOCCOC(=O)/C(C#N)=C/c1ccc(N(C)C)cc1 [Cmpd 8a, (E)-2-(2-(2-methoxyethoxyl)ethoxy)ethyl 2-cyano-3-(4-(dimethylamino)phenyl)acrylate]
